Measurements as given in ChEMBL document CHEMBL1201862, “PubChem BioAssay data set” (2004).
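Exposure lasted 48 hours, with cells grown in 96-well plates and compounds tested at five concentrations. GI50 marks 50% less growth.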 Calls of active or inactive are those of the source. Cut-off read from the data, not from the text of the source: active = GI50 up to about 1.1 µM and inactive = higher.

How the values were obtained:
Assay in all cases: NCI anticancer screen, dose series, 48 h
MDA-MB-435 = system: MDA-MB-435
BT-549 = system: BT-549
SNB-78 = system: SNB-78
LXFL 529 = system: LXFL 529
RXF 631 = system: RXF 631
M19-MEL = system: M19-MEL
NCI/ADR-RES = system: NCI/ADR-RES
DMS-273 = system: DMS-273
786-0 = system: 786-0

Measured: GI50

CCOC(=O)c1c(Cl)nc2ccccc2c1N=[N+]=[N-]
inactive: MDA-MB-435 21.1 µM | BT-549 16.4 µM

CC(C)=CCC/C(C)=C/CC/C(C)=C/C(O)c1ccccc1 (configuration not stated)
inactive: SNB-78 22.6 µM | LXFL 529 17.8 µM | RXF 631 18 µM | M19-MEL 18.3 µM

COC1(O)c2cccc(Cl)c2C(=O)N1C1(C(N)=O)CCCCC1 (configuration not stated)
inactive: SNB-78 > 100 µM | M19-MEL > 100 µM | NCI/ADR-RES > 100 µM | DMS-273 > 100 µM

c1ccc(COc2cccc3ccc[n+](Cc4ccccc4)c23)cc1
inactive: LXFL 529 3.62 µM | RXF 631 18.9 µM | M19-MEL 3.59 µM | DMS-273 3.8 µM | 786-0 13.4 µM

O=C(O)C(SC(=S)c1ccc(C(=S)SC(C(=O)O)c2ccccc2)cc1)c1ccccc1 (configuration not stated)
inactive: SNB-78 > 100 µM | LXFL 529 50.8 µM | RXF 631 > 100 µM | DMS-273 47.2 µM | 786-0 40.9 µM

O=C(Nc1nccs1)c1c(O)nc2sccn2c1=O
inactive: MDA-MB-435 > 10 µM | NCI/ADR-RES > 10 µM

O=C(O)C1CC2C=CCC(C2)C1 (configuration not stated)
inactive: SNB-78 > 100 µM | LXFL 529 > 100 µM | M19-MEL > 100 µM | DMS-273 > 100 µM | 786-0 > 100 µM

CC1SC2=NC3=C(c4ccccc4C3=O)C(c3ccccc3Cl)N2C1=O (configuration not stated)
inactive: LXFL 529 > 100 µM | RXF 631 > 100 µM | M19-MEL > 100 µM | DMS-273 > 100 µM | 786-0 > 100 µM

C[Si](C)(N[Si](C)(C)OCCc1ccccc1)OCCc1ccccc1
inactive: MDA-MB-435 > 100 µM | BT-549 > 100 µM | NCI/ADR-RES > 100 µM | 786-0 > 100 µM

COc1ccc(Nc2cnc3cc(N)ccc3n2)cc1OC
inactive: LXFL 529 13.2 µM | M19-MEL > 100 µM | DMS-273 56.2 µM

C1=CCN(c2ccccc2)CC1
inactive: SNB-78 29.8 µM | LXFL 529 18.6 µM | RXF 631 > 100 µM | DMS-273 > 100 µM

O=C(O)C(CSC(c1ccccc1)(c1ccccc1)c1ccccc1)/N=C/c1cccs1 (configuration not stated)
active: MDA-MB-435 0.324 µM
inactive: BT-549 4.97 µM | NCI/ADR-RES 14 µM | 786-0 1.17 µM

CCN1CCC(O)(c2ccc(O)cc2)C(C(=O)c2ccc(O)cc2)C1 (configuration not stated)
inactive: MDA-MB-435 17.3 µM | NCI/ADR-RES 26.3 µM

CSc1nc2c(nc(N)n2C2OCC(O)C(O)C2O)c(=O)[nH]1 (configuration not stated)
inactive: SNB-78 > 100 µM | LXFL 529 > 100 µM | RXF 631 > 100 µM | M19-MEL > 100 µM | 786-0 > 100 µM

N#CC(C#N)=C1CCC2C(=C(C#N)C#N)CCC12 (configuration not stated)
inactive: SNB-78 > 100 µM | LXFL 529 > 100 µM | RXF 631 > 100 µM | M19-MEL > 100 µM | DMS-273 > 100 µM | 786-0 > 100 µM

C=C=C(Sc1ccccc1)C(C)(C)OC(C)=O
inactive: SNB-78 29.8 µM | LXFL 529 18.2 µM | M19-MEL 15.8 µM | 786-0 16.5 µM

O=C(C1=C(C(=O)c2ccccc2)SC2(S1)C(C(=O)c1ccccc1)=C(C(=O)c1ccccc1)Sc1c2ssc1=O)c1ccccc1
inactive: MDA-MB-435 70.6 µM | BT-549 80.4 µM | NCI/ADR-RES > 100 µM | 786-0 31.1 µM

CC(C)OP(=O)(OC(C)C)/C(F)=N/Nc1ccc([N+](=O)[O-])cc1
inactive: LXFL 529 > 100 µM | M19-MEL > 100 µM | DMS-273 > 100 µM

CCc1ccc2nc(-c3ccc(O)cc3)sc2c1
inactive: MDA-MB-435 19.2 µM | BT-549 16.3 µM | NCI/ADR-RES 13.5 µM

CC[n+]1c(-c2ccccc2)c2cc(N)ccc2c2ccc(N)cc21 [HOMIDIUM BROMIDE]
inactive: MDA-MB-435 3.5 µM | BT-549 1.14 µM | NCI/ADR-RES > 100 µM
